Experimental findings from patent publication US20230099858A1, “PYRIDOPYRIMIDINE DERIVATIVES AS KRAS INHIBITORS” (BETA PHARMA, INC., priority 2020, published 2023) are described below.

This assay has as its target T1, KRAS G12C (Homo sapiens, UniProt P01116, G12C).
T1 construct: aa 2-169, expressed in E. coli; His-tag (TEV cleavable) (N); purchased Reaction Biology Corporation (RBC); host or cells: E. coli
Kind of assay: KRAS G12C/SOS1 Nucleotide Exchange Assay (SOS1-mediated Bodipy-GDP to GTP exchange). The format is biochemical. The conditions noted are these: for IC50: substrate Bodipy-GDP/Kras G12C, 30 min pre-incubation at RT. As for the experimental part:
Reaction Buffer: 40 mM HEPES 7.4, 10 mM MgCl2, 1 mM DTT 0.002% Triton X100, 0.1% DMSO (final).
In addition, the final assay volume was 15 μL.
Reaction Procedure: • 1. Deliver 10 uL of 1.5× KRAS solution in freshly prepared reaction buffer to reaction wells. • 2. Deliver compounds in 100% DMSO into buffer using acoustic technology (Echo550; nanoliter range). • 3. Incubate compounds with Kras for 30 minutes at room temperature. • 4. Prepare 3× (SOS1+GTP) solution in reaction buffer. • 5. Deliver 5 μL of SOS1+GTP solution into reactions wells (deliver GTP only to column 1 for no SOS1 control). • 6.
Data Analysis: The fluorescence data was normalized using the equation below and fitted to “one phase exponential decay” equation using GraphPad prism software. The plateau was fixed to zero (use for non-covalent inhibitors) and rate ×1000 was used to calculate the IC50 values. Alternatively, the plateau was unconstrained (for covalent inhibitors) and the span value was used to calculate the IC50 values.
where Yraw is defined as fluorescence at time t, Ao is the average initial fluorescence with no SOS1, and M is the minimum fluorescence at the end of the reaction at the maximum SOS1.
The background subtracted signals (no SOS1 protein wells were used as background) were converted to % activity relative to DMSO controls. Data was analyzed using GraphPad Prism 4 with “sigmoidal dose-response (variable slope)”; 4 parameters with Hill Slope. The constraints were bottom (constant equal to 0) and top (must be less than 1).

The mark [1] stands for this setting: plateau fixed to zero, rate x1000 used, read-out: IC50, Analysis Method: Rate Constant, KRAS G12C.

Where a name gives a salt, the structure may show the parent alone. Read-outs that look alike come from different tables or passages of the source. Some results are limits rather than exact numbers.

T1 sequence (P01116 2-169 G12C): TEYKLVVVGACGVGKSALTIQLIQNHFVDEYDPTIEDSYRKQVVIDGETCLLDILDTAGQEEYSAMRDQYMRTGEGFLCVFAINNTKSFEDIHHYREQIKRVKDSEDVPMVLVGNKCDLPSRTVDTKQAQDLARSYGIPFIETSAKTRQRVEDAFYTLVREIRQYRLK

A word on the inhibition: it is the drop in the measured response relative to a control, in per cent. As a reminder, the IC50 is the point on the concentration scale where inhibition reaches its midpoint. Consider `C=CC(=O)N1CCN(c2nc(OCC3CCCN3C)nc3nc(-c4cccc5cccc(Cl)c45)ccc23)C[C@H]1C` (stereo partly drawn) [Example 1, 1-[(2R)-4-[7-(8-Chloronaphthalen-1-yl)-2-[(1-methylpyrrolidin-2-yl)methoxy]pyrido[2,3-d]pyrimidin-4-yl]-2-methylpiperazin-1-yl]prop-2-en-1-one], for which the inhibition at 10 µM (span analysis, no curve fit, highest concentration tested 10 μM, read-out: inhibition, printed in place of an IC50, Analysis Method: Span, KRAS G12C) was below 65%. For the same molecule, under setting [1], the IC50 worked out at 58 nM.

Turning to `C=CC(=O)N1CCN(c2nc(OC[C@@H]3CCCN3C)nc3nc(-c4cccc5cccc(Cl)c45)ccc23)C[C@@H]1CC#N` [Example 2, 2-((S)-1-Acryloyl-4-(7-(8-chloronaphthalen-1-yl)-2-(((S)-1-methylpyrrolidin-2-yl)methoxy)pyrido[2,3-d]pyrimidin-4-yl)piperazin-2-yl)acetonitrile trifluoroacetate (1:1)], the IC50 by setting is: under setting [1], 8 nM; (plateau unconstrained, span value used (for covalent inhibitors), read-out: IC50, Analysis Method: Span, KRAS G12C) 25 nM.
